Assay [1] addresses T1, Connexin46 (Cx46) hemichannel (Homo sapiens, UniProt Q9Y6H8).
T1 construct: gene GJA3; human Cx46tGFP (turbo GFP fusion) expressed in HeLa cells
Briefly: DAPI uptake dose response in Cx46tGFP HeLa cells; whole-cell patch clamp ([…] KI04 decreased currents). Type of assay: cell-based. (In general: In patch-clamp work, channel activity is measured electrically.)

In assay [2] the target is T1, Connexin46 (Cx46) hemichannel. Briefly: DAPI uptake dose response in Cx46tGFP HeLa cells. Type of assay: cell-based.

In general, IC50 refers to the point on the concentration scale where inhibition reaches its midpoint. Low values mean greater potency in that assay, high ones weaker potency in that assay.

Consider `CCCCCCCCCCCC(=O)NC[C@@H]1O[C@H](O[C@H]2[C@H](O)[C@@H](O[C@H]3O[C@H](CO)[C@@H](O)[C@H](N)[C@H]3O)[C@H](N)C[C@@H]2N)[C@H](O)[C@@H](O)[C@@H]1O` [KI04], for which the IC50 in assay [1] was approximately 7.7 µM. Compound `NC[C@H]1O[C@H](O[C@H]2[C@H](O)[C@@H](O[C@H]3O[C@H](CO)[C@@H](O)[C@H](N)[C@H]3O)[C@H](N)C[C@@H]2N)[C@H](O)[C@@H](O)[C@@H]1O` [kanamycin] returned an IC50 in assay [2] of 1.7 µM.

These data come from article PMC10046693, “KI04 an Aminoglycosides-Derived Molecule Acts as an Inhibitor of Human Connexin46 Hemichannels Expressed in HeLa Cells” (Biomolecules, 2023).
